Columns and labels:
Type in all cases: in vivo
[1] = test system: goosegrass (Eleusine indica); assay: Test B pre-/postemergence plant response; conditions: Preemergence, 62 g ai/ha; scale 0 to 100 (0 no effect, 100 complete control)
[2] = test system: guineagrass (Panicum maximum); assay: Test D pre-/postemergence plant response
Outline: (§1)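 Greenhouse assay: sown seeds in loam/sand received preemergence spray; simultaneously, emerged seedlings (1- to 4-leaf, 2–18 cm) got postemergence spray of the same surfactant-containing formulation. Rating at 14–21 days by visual comparison with controls, 0 = no effect to 100 = complete control.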

[3] = test system: johnsongrass (Sorghum halepense); assay: Test D pre-/postemergence plant response
Outline: as §1

[4] = test system: chickweed (common chickweed, Stellaria media); assay: Test D pre-/postemergence plant response; conditions: Postemergence
Outline: as §1

[5] = test system: Italian ryegrass (Lolium multiflorum); assay: Test D pre-/postemergence plant response
Outline: as §1

[6] = test system: barnyardgrass (Echinochloa crus-galli); assay: Test D pre-/postemergence plant response
Outline: as §1

kochia (Kochia scoparia) = assay: Test D pre-/postemergence plant response
Outline: as §1

[7] = test system: dallisgrass (Paspalum dilatatum); assay: Test D pre-/postemergence plant response
Outline: as §1

[8] = Postemergence, 31 g ai/ha, scale 0 to 100
[9] = Postemergence, 62 g ai/ha, scale 0 to 100 (0 no effect, 100 complete control)
[10] = Postemergence, 125 g ai/ha, scale 0 to 100 (0 no effect, 100 complete control)
[11] = Postemergence, 250 g ai/ha, scale 0 to 100 (0 no effect, 100 complete control)
[12] = Preemergence, 62 g ai/ha, scale 0 to 100
[13] = Preemergence, 125 g ai/ha, scale 0 to 100
[14] = Preemergence, 250 g ai/ha, scale 0 to 100
[15] = 62 g ai/ha, scale 0 to 100 (0 no effect, 100 complete control)
[16] = 125 g ai/ha, scale 0 to 100 (0 no effect, 100 complete control)
[17] = 250 g ai/ha, scale 0 to 100 (0 no effect, 100 complete control)

## Cc1c(Cl)cccc1-n1c(-c2ccccc2)ncc(C(=O)C2=C(O)CCCC2=O)c1=O [Compound 40]
[1]
  Plant response rating, Goosegrass: 98

## CCCCc1ncc(C(=O)C2=C(O)CCCC2=O)c(=O)n1-c1ccccc1 [Compound 42]
[1]
  Plant response rating, Goosegrass: 95

## Cc1ccc(F)cc1-n1c(-c2ccccc2)ncc(C(=O)C2=C(O)CCCC2=O)c1=O [Compound 44]
[1]
  Plant response rating, Goosegrass: 98

## Cc1cccc(Cl)c1-n1c(-c2ccccc2)ncc(C(=O)C2=C(O)CCCC2=O)c1=O [Compound 46]
[1]
  Plant response rating, Goosegrass: 95

## COCCn1c(-c2cc(F)cc(F)c2)ncc(C(=O)C2=C(O)C3CCC(C3)C2=O)c1=O (centres unmarked) [Compound 243, 2-(3,5-difluorophenyl)-5-[(2-hydroxy-4-oxobicyclo[3.2.1]oct-2-en-3-yl)carbonyl]-3-(2-methoxyethyl)-4(3H)-pyrimidinone]
[2]; [8]
  Plant response rating, Guineagrass: 70
[2]; [9]
  Plant response rating, Guineagrass: 75
[2]; [10]
  Plant response rating, Guineagrass: 75
[2]; [11]
  Plant response rating, Guineagrass: 85
[2]; [12]
  Plant response rating, Guineagrass: 100
[2]; [13]
  Plant response rating, Guineagrass: 100
[2]; [14]
  Plant response rating, Guineagrass: 100
[3]; [8]
  Plant response rating, Johnsongrass: 70
[3]; [9]
  Plant response rating, Johnsongrass: 70
[3]; [10]
  Plant response rating, Johnsongrass: 70
[3]; [11]
  Plant response rating, Johnsongrass: 75
[3]; [12]
  Plant response rating, Johnsongrass: 100
[3]; [13]
  Plant response rating, Johnsongrass: 100
[3]; [14]
  Plant response rating, Johnsongrass: 100
[4]; 31 g ai/ha, scale 0 to 100
  Plant response rating, Chickweed: 35
[4]; [15]
  Plant response rating, Chickweed: 50
[4]; [16]
  Plant response rating, Chickweed: 60
[4]; [17]
  Plant response rating, Chickweed: 70
[5]; [8]
  Plant response rating, Ryegrass, Italian: 0
[5]; [9]
  Plant response rating, Ryegrass, Italian: 20
[5]; [10]
  Plant response rating, Ryegrass, Italian: 30
[5]; [11]
  Plant response rating, Ryegrass, Italian: 65
[5]; [13]
  Plant response rating, Ryegrass, Italian: 98
[5]; [14]
  Plant response rating, Ryegrass, Italian: 100
[6]; [8]
  Plant response rating, Barnyardgrass: 75
[6]; [9]
  Plant response rating, Barnyardgrass: 80
[6]; [10]
  Plant response rating, Barnyardgrass: 80
[6]; [11]
  Plant response rating, Barnyardgrass: 90
[6]; [12]
  Plant response rating, Barnyardgrass: 100
[6]; [13]
  Plant response rating, Barnyardgrass: 100
[6]; [14]
  Plant response rating, Barnyardgrass: 100
Kochia (Kochia scoparia); [8]
  Plant response rating, Kochia: 50
Kochia (Kochia scoparia); [9]
  Plant response rating, Kochia: 60
Kochia (Kochia scoparia); [10]
  Plant response rating, Kochia: 70
Kochia (Kochia scoparia); [11]
  Plant response rating, Kochia: 75
Kochia (Kochia scoparia); [12]
  Plant response rating, Kochia: 80
Kochia (Kochia scoparia); [13]
  Plant response rating, Kochia: 100
Kochia (Kochia scoparia); [14]
  Plant response rating, Kochia: 100
[7]; [8]
  Plant response rating, Dallisgrass: 75
[7]; [9]
  Plant response rating, Dallisgrass: 80
[7]; [10]
  Plant response rating, Dallisgrass: 90
[7]; [11]
  Plant response rating, Dallisgrass: 90
[7]; [12]
  Plant response rating, Dallisgrass: 100
[7]; [13]
  Plant response rating, Dallisgrass: 100
[7]; [14]
  Plant response rating, Dallisgrass: 100

## CCCCn1c(-c2cc(F)cc(F)c2)ncc(C(=O)C2=C(O)C3CCC(C3)C2=O)c1=O (centres unmarked) [Compound 245]
[2]; [8]
  Plant response rating, Guineagrass: 75
[2]; [9]
  Plant response rating, Guineagrass: 75
[2]; [10]
  Plant response rating, Guineagrass: 75
[2]; [11]
  Plant response rating, Guineagrass: 85
[3]; [8]
  Plant response rating, Johnsongrass: 70
[3]; [9]
  Plant response rating, Johnsongrass: 75
[3]; [10]
  Plant response rating, Johnsongrass: 75
[3]; [11]
  Plant response rating, Johnsongrass: 75
[4]; 31 g ai/ha, scale 0 to 100
  Plant response rating, Chickweed: 5
[4]; [15]
  Plant response rating, Chickweed: 25
[4]; [16]
  Plant response rating, Chickweed: 50
[4]; [17]
  Plant response rating, Chickweed: 50
[5]; [8]
  Plant response rating, Ryegrass, Italian: 5
[5]; [9]
  Plant response rating, Ryegrass, Italian: 5
[5]; [10]
  Plant response rating, Ryegrass, Italian: 20
[5]; [11]
  Plant response rating, Ryegrass, Italian: 50
[6]; [8]
  Plant response rating, Barnyardgrass: 80
[6]; [9]
  Plant response rating, Barnyardgrass: 85
[6]; [10]
  Plant response rating, Barnyardgrass: 85
[6]; [11]
  Plant response rating, Barnyardgrass: 90
Kochia (Kochia scoparia); [8]
  Plant response rating, Kochia: 50
Kochia (Kochia scoparia); [9]
  Plant response rating, Kochia: 65
Kochia (Kochia scoparia); [10]
  Plant response rating, Kochia: 70
Kochia (Kochia scoparia); [11]
  Plant response rating, Kochia: 75
[7]; [8]
  Plant response rating, Dallisgrass: 65
[7]; [9]
  Plant response rating, Dallisgrass: 75
[7]; [10]
  Plant response rating, Dallisgrass: 80
[7]; [11]
  Plant response rating, Dallisgrass: 85

Source: patent US8952024B2, “Herbicidal pyrimidone derivatives” (E I du Pont de Nemours and Company, priority 2009, dated 2015)
